Results reported in publication PMC10935581 (Biochemistry, 2023).
“Also recorded” adds a separate entry of the source. Like-named read-outs stand apart in the source and are kept apart here.

What was measured:
NAMPT [1] = target: T1, NAMPT (Homo sapiens, UniProt P43490); assay: Coupled primary NAMPT enzyme assay; type: biochemical; settings: for HTS outcome (increase of NAMPT enzyme activity): screen of ChemDiv and Microsource Spectrum libraries
[2] = tested on: THP-1 human leukemic monocyte cell line; assay: Cellular NAD+ by miniaturized NADglo assay; type: cell-based; settings: 24 h incubation
NAMPT [3] = target: T1, NAMPT; assay: Orthogonal NAMPT endpoint assay; type: biochemical
NAMPT [4] = target: T1, NAMPT; settings: cited from earlier work
NAMPT [5] = target: T1, NAMPT; assay: Uncoupled ATPase reaction of NAMPT; type: biochemical; settings: absence of PRPP
NAMPT [6] = target: T1, NAMPT; assay: Fluorescence polarization binding assay

T1 sequence (P43490 whole entry): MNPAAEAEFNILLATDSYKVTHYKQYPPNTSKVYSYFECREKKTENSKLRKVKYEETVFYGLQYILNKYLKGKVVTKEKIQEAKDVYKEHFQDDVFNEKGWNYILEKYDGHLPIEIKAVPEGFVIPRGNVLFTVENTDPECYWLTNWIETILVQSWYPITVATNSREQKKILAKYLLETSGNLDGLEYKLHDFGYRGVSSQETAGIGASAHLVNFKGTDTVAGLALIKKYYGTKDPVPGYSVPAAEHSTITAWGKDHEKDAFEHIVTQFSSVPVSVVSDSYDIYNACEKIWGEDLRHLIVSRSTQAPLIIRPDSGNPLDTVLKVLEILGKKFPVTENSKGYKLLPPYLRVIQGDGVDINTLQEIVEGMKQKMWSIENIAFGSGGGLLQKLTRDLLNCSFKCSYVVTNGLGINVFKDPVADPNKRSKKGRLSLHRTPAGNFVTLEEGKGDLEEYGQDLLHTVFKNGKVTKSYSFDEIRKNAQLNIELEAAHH

## COc1ccc(CC(=O)c2ccc(O)cc2O)cc1 [onenetin]
NAMPT [1]
  HTS outcome (increase of NAMPT enzyme activity): validated hits

## O=c1c(-c2ccc(O)cc2)coc2cc(O)cc(O)c12 [genestein]
NAMPT [1]
  HTS outcome (increase of NAMPT enzyme activity): validated hits

## O=C(NCc1ccncc1)Nc1ccc(S(=O)(=O)N2CC3CCC(C2)O3)cc1 [SBI-0797812]
[2]
  Effect on cellular NAD+ (in words): reducing cellular levels of NAD^+; also recorded: inhibited both NAMPT activity and NAD^+ formation in THP-1 cells
NAMPT [3]
  Effect on ATP dependence of NAMPT (KM(ATP), KI(ATP)): significant left-shift in KM(ATP); also recorded: dramatic left-shift in both KM and KI for ATP
NAMPT [3]; ATP 4 mM, NAM 3 or 300 μM, PRPP 40 μM
  NAMPT activity relative to vehicle control: Inhibition of NAMPT activity
NAMPT [3]; Fig. 2D
  NAMPT activation: confirmed to activate NAMPT
NAMPT [3]; left-shifted
  KI(ATP) in presence of activator: < 1000 µM

## NC(=O)c1ccc[n+]([C@@H]2O[C@H](COP(=O)([O-])OP(=O)(O)OC[C@H]3O[C@@H](n4cnc5c(N)ncnc54)[C@H](O)[C@@H]3O)[C@@H](O)[C@H]2O)c1 [NAD^+, Nicotinamide adenine dinucleotide]
NAMPT [4]; read-out: KI for inhibition of NAMPT activity
  Ki: 2 µM

## NC(=O)c1cccnc1 [NAM, nicotinamide]
NAMPT [1]; read-out: Apparent KM for NAM, no activator
  Km: ~0.000145 mM

## O=c1c(O)c(-c2ccc(O)c(O)c2)oc2cc(O)cc(O)c12 [quercitin]
NAMPT [1]; at ≤ 40 μM
  NAMPT activation in primary assay: devoid of activity

## Nc1ncnc2c1ncn2[C@@H]1O[C@H](COP(=O)(O)OP(=O)(O)OP(=O)(O)O)[C@@H](O)[C@H]1O [ATP]
NAMPT [4]; read-out: KM(ATP)
  Km: 7 mM

## C/C=C(/C(=C/C)c1ccc(O)cc1)c1ccc(O)cc1 [dienestrol]
NAMPT [1]
  HTS outcome (increase of NAMPT enzyme activity): validated hits

## C[C@@H]1O[C@@H](Oc2c(-c3ccc(O)c(O)c3)oc3cc(O)cc(O)c3c2=O)[C@H](O)[C@H](O)[C@H]1O [quercitrin]
NAMPT [5]
  Effect on uncoupled ATP consumption: increase uncoupled ATP consumption
NAMPT [6]
  Binding to NAMPT (in words): weak binding NAMPT ligand
  Kd: 16 µM
[2]
  Effect on cellular NAD+ (in words): inactive in cells
[2]; listed as Quercitrin
  Effect on cellular NAD+ (in words): inactive
NAMPT [1]
  Maximal activation of NAMPT relative to vehicle control: high activation at higher concentrations
  HTS outcome (increase of NAMPT enzyme activity): validated hits
NAMPT [1]; rate increased
  Effect on KM(ATP): without significant effect

## COc1cccc(NCC(F)Cn2c3ccc(Br)cc3c3cc(Br)ccc32)c1 (stereo not drawn) [P7C3-A20]
NAMPT [6]
  Binding to NAMPT (in words): did not show any NAMPT binding activity
